{"source": "paper PMC6269309", "about": "(Haematologica, 2018)", "key": {"[1]": {"tested_on": "PLCγ2 pY753, pY759, pY1217", "assay": "Protein phosphorylation, western blot of CRP-stimulated washed platelets: PLCγ2", "assay_type": "cell-based, human"}, "[2]": {"tested_on": "Btk", "details": "doses of 2.5 mg/kg; cited from earlier work"}, "[3]": {"tested_on": "LAT pY200", "assay_type": "cell-based, human"}, "[4]": {"tested_on": "SLP-76 pY145", "assay_type": "cell-based, human"}, "[5]": {"tested_on": "platelet aggregation induced by ADP and PAR1 peptide", "assay_type": "in vivo, human", "details": "patients taking either inhibitor, data not shown"}, "[6]": {"tested_on": "Ca2+ mobilization in platelets", "assay": "Measurement of [Ca2+]i in Fura-2-loaded platelets stimulated with CRP", "assay_type": "cell-based, human"}, "[7]": {"tested_on": "Tec", "assay": "Tec phosphorylation, immunoprecipitation and blotting with 4G10", "assay_type": "cell-based, human", "details": "washed platelets 8x10^8/mL, CRP 10 μg/mL 180 s"}, "[8]": {"tested_on": "whole cell tyrosine phosphorylation", "assay": "Whole cell tyrosine phosphorylation in CRP-stimulated washed platelets", "assay_type": "cell-based, human"}, "[9]": {"tested_on": "NFAT signaling in DT40 cells", "assay_type": "cell-based, chicken", "details": "collagen 10 μg/mL, no serum"}, "[10]": {"tested_on": "Syk pY525/6", "assay_type": "cell-based, human"}, "[11]": {"tested_on": "GPVI-induced platelet aggregation", "assay_type": "in vivo, human", "details": "CLL patients, ibrutinib 420 mg once daily or acalabrutinib 100 mg twice daily, PRP, 2-3 h after dose, CRP 10 μg/mL"}, "[12]": {"tested_on": "Btk pY551", "assay_type": "cell-based, human"}, "[13]": {"tested_on": "PLCγ2 pY1217", "assay": "Ex vivo PLCγ2 pY1217 phosphorylation in washed platelets of treated patients", "parameters": "species or system human", "details": "CLL patients, ibrutinib 420 mg once daily or acalabrutinib 100 mg twice daily"}, "[14]": {"tested_on": "GPVI-mediated platelet aggregation (washed platelets, CRP)", "assay": "Light transmission aggregometry, washed platelets stimulated with CRP", "assay_type": "cell-based, human"}, "[15]": {"tested_on": "Src pY418", "assay_type": "cell-based, human"}, "[16]": {"tested_on": "ATP secretion of washed platelets", "assay": "Granule release", "assay_type": "cell-based, human"}, "[17]": {"tested_on": "Btk pY223", "assay_type": "cell-based, human"}, "[18]": {"details": "cited from earlier work"}, "[19]": {"details": "cited from earlier work", "remark": "listed apart in the source"}, "[20]": {"details": "cited from earlier work", "remark": "listed apart in the source"}, "[21]": {"tested_on": "Btk pY223", "details": "CLL patients, ibrutinib 420 mg once daily or acalabrutinib 100 mg twice daily"}, "[22]": {"tested_on": "Btk", "details": "cited from earlier work"}, "[23]": {"details": "higher concentrations, up to 200 μM"}}, "note": "Where two headings read alike, the source gives them in different places.", "data": [{"molecule": "C=CC(=O)N1CCC[C@@H](n2nc(-c3ccc(Oc4ccccc4)cc3)c3c(N)ncnc32)C1", "note": "[ibrutinib]", "values": [{"measurement": "Phosphorylation of downstream PLCγ2", "setting": "[1]; 70 nM, CRP 10 μg/mL", "value": "reduced to basal levels"}, {"measurement": "Reversibility of inhibition of PLCγ2 pY753 and pY1217", "setting": "[1]; two washing steps before CRP", "value": "irreversible"}, {"measurement": "Btk occupancy", "setting": "[2]", "value": "> 95", "unit": "%"}, {"measurement": "Phosphorylation of LAT Y200", "setting": "[3]; 70 nM, CRP 10 μg/mL", "value": "not altered"}, {"measurement": "Dose at which inhibition of LAT Y200 phosphorylation was seen", "setting": "[3]; CRP 10 μg/mL", "value": 7, "unit": "µM"}, {"measurement": "Phosphorylation of SLP-76 Y145", "setting": "[4]; 70 nM, CRP 10 μg/mL", "value": "not altered"}, {"measurement": "Dose at which inhibition of SLP-76 Y145 phosphorylation was seen", "setting": "[4]; CRP 10 μg/mL", "value": 7, "unit": "µM"}, {"measurement": "Platelet aggregation induced by ADP and PAR1 peptide ex vivo", "setting": "[5]", "value": "not altered"}, {"measurement": "Peak Ca2+ concentration after a high concentration of CRP", "setting": "[6]; 70 nM", "value": "not altered"}, {"measurement": "Peak Ca2+ concentration after a high concentration of CRP", "setting": "[6]; 700 nM", "value": "markedly reduced"}, {"measurement": "Concentration giving full blockade of Tec phosphorylation", "setting": "[7]", "value": 7, "unit": "µM"}, {"measurement": "Concentration giving partial blockade of Tec phosphorylation", "setting": "[7]", "value": 170, "unit": "nM"}, {"measurement": "Dose at which inhibition of whole cell phosphorylation was seen", "setting": "[8]; CRP 10 μg/mL", "value": 7, "unit": "µM"}, {"measurement": "Reversibility of inhibition of global tyrosine phosphorylation", "setting": "[8]; two washing steps before CRP", "value": "reversible on washout"}, {"measurement": "NFAT signaling, WT and KD Btk transfected cells", "setting": "[9]; high dose (range 0.5-10 μM)", "value": "blocked NFAT signaling"}, {"measurement": "NFAT signaling, cells transfected with WT or KD Btk", "setting": "[9]; low dose (range 0.5-10 μM)", "value": "had no effect"}, {"measurement": "Phosphorylation of Syk Y525/6", "setting": "[10]; 70 nM, CRP 10 μg/mL", "value": "not altered"}, {"measurement": "Dose at which inhibition of Syk Y525/6 phosphorylation was seen", "setting": "[10]; CRP 10 μg/mL", "value": 7, "unit": "µM"}, {"measurement": "GPVI-induced platelet aggregation ex vivo", "setting": "[11]", "value": "blocked"}, {"measurement": "Phosphorylation of Btk on Y551", "setting": "[12]; 70 nM, CRP 10 μg/mL", "value": "not altered"}, {"measurement": "Dose at which inhibition of Btk Y551 phosphorylation was seen", "setting": "[12]; CRP 10 μg/mL", "value": 7, "unit": "µM"}, {"measurement": "Phosphorylation of PLCγ2 pY1217 ex vivo", "setting": "[13]", "value": "complete inhibition"}, {"measurement": "Response to a sub-maximal concentration of CRP", "setting": "[14]; 70 nM", "value": "reduced response"}, {"measurement": "Aggregation in response to a high concentration of CRP", "setting": "[14]; 70 nM, incubation ≥5 min, CRP 10 μg/mL", "value": "time-dependent delay in aggregation"}, {"measurement": "Aggregation in response to a high dose of CRP", "setting": "[14]; 700 nM, incubation ≥30 s, CRP 10 μg/mL", "value": "block aggregation"}, {"measurement": "Phosphorylation of Src Y418", "setting": "[15]; 70 nM, CRP 10 μg/mL", "value": "not altered"}, {"measurement": "Reversibility of inhibition of Src pY418", "setting": "[15]; two washing steps before CRP", "value": "reversible"}, {"measurement": "ATP secretion in response to a high concentration of CRP", "setting": "[16]; 70 nM", "value": "no effect"}, {"measurement": "ATP secretion in response to a high concentration of CRP", "setting": "[16]; 700 nM", "value": "blocked"}, {"measurement": "Autophosphorylation of Btk", "setting": "[17]; 70 nM, CRP 10 μg/mL", "value": "reduced to basal levels"}, {"measurement": "Reversibility of inhibition of Btk pY223 autophosphorylation", "setting": "[17]; two washing steps before CRP", "value": "irreversible"}, {"measurement": "Initial half-life", "setting": "[18]", "value": "2 to 3", "unit": "h"}, {"measurement": "Terminal half-life", "setting": "[18]", "value": "4 to 8", "unit": "h"}, {"measurement": "Bound to plasma proteins", "setting": "[19]", "value": 97, "unit": "%"}]}, {"molecule": "CC#CC(=O)N1CCC[C@H]1c1nc(-c2ccc(C(=O)Nc3ccccn3)cc2)c2c(N)nccn12", "note": "[acalabrutinib]", "values": [{"measurement": "Tyrosine phosphorylation of PLCγ2 on Y759 and Y1217", "setting": "[1]; 2 μM, CRP 10 μg/mL", "value": "blocked"}, {"measurement": "Phosphorylation of LAT Y200", "setting": "[3]; [23]", "value": "had no effect"}, {"measurement": "Phosphorylation of SLP-76 Y145", "setting": "[4]; [23]", "value": "small reduction"}, {"measurement": "Platelet aggregation induced by ADP and PAR1 peptide ex vivo", "setting": "[5]", "value": "not altered"}, {"measurement": "Concentration giving full blockade of Tec phosphorylation", "setting": "[7]", "value": 200, "unit": "µM"}, {"measurement": "Concentration giving partial inhibition of Tec phosphorylation", "setting": "[7]", "value": "approximately 1 μM"}, {"measurement": "Phosphorylation of Syk Y525/6", "setting": "[10]; [23]", "value": "had no effect"}, {"measurement": "Major hemorrhage in treated patients", "setting": "[20]", "value": "not seen"}, {"measurement": "Autophosphorylation of Btk pY223 ex vivo", "setting": "[21]", "value": "complete inhibition"}, {"measurement": "IC50 for Btk relative to ibrutinib (lower)", "setting": "[22]", "value": 5, "unit": "fold"}, {"measurement": "Potency as an inhibitor of Btk relative to ibrutinib (lower)", "setting": "[22]", "value": 5, "unit": "fold"}, {"measurement": "GPVI-induced platelet aggregation ex vivo", "setting": "[11]", "value": "not blocked"}, {"measurement": "Phosphorylation of Btk Y551", "setting": "[12]; [23]", "value": "small reduction"}, {"measurement": "Phosphorylation of PLCγ2 pY1217 ex vivo", "setting": "[13]", "value": "complete inhibition"}, {"measurement": "Onset of aggregation", "setting": "[14]; 2 μM, CRP", "value": "slight delay in aggregation"}, {"measurement": "Overall magnitude of aggregation response", "setting": "[14]; 2 μM, CRP", "value": "no effect"}, {"measurement": "Phosphorylation of Src Y418", "setting": "[15]; [23]", "value": "had no effect"}, {"measurement": "Tyrosine phosphorylation of Btk on Y223", "setting": "[17]; 2 μM, CRP 10 μg/mL", "value": "blocked"}, {"measurement": "Half-life", "setting": "[18]", "value": 1, "unit": "h"}, {"measurement": "Mean peak free drug concentration in patients", "setting": "[18]; patients", "value": 1.3, "unit": "µM"}]}]}
